Data published in paper PMC9476334 (Chemico-Biological Interactions, 2022).

Target: SARS-CoV-2 spike S1 RBD / ACE2 interaction (S-RBD protein binding to ACE2) (Severe acute respiratory syndrome coronavirus 2, UniProt P0DTC2)
Assay: biochemical

## N=C(N)c1ccc(/N=N/Nc2ccc(C(=N)N)cc2)cc1 [DIZE]
  IC50: 20.6 µM
